Data on 23 compounds can be found in patent US12325697B2 (Nimbus Clio, Inc., priority 2021, dated 2025).

The IC50 is the concentration that inhibits the measured activity by half.

In experiment [1] the target is Recombinant human c-Cbl (aa 47-435) (Homo sapiens (Human), UniProt P22681). The experiment in a line: c-Cbl Biochemical Assay (TR-FRET). Put shortly: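 Biotinylated c-Cbl (6 nM) preincubated 30 min RT with compound, then reacted 60-90 min with Src-Zap70 (2.5-10 nM) and 0.5 mM ATP, pH 7.0 HEPES buffer. Stopped with EDTA; 100 nM Bodipy-ubiquitinated UBE2D2 binding read by TR-FRET after 60 min; IC50 from 4-parameter fit.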
Sequence of Recombinant human c-Cbl (aa 47-435) (P22681 47-435): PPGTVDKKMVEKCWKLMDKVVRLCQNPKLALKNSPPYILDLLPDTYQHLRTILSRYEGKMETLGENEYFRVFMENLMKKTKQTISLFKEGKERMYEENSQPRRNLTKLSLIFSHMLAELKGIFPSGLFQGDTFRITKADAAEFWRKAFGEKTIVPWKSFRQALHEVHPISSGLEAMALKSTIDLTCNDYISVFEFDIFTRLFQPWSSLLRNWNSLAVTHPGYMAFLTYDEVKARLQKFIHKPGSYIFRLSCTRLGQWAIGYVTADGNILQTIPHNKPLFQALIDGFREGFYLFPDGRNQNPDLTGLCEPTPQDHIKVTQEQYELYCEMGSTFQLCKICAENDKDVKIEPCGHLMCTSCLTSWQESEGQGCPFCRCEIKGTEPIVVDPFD
Background: TR-FRET usually uses a lanthanide donor and a delayed reading to cut background.

Experiment [2] addresses Recombinant human Cbl-b (aa 36-427) (Homo sapiens (Human), UniProt Q13191). The experiment in a line: Cbl-b Biochemical Assay (TR-FRET). Particulars: read-out: TR-FRET hCbl-b IC50. Put shortly:
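Two-step TR-FRET: 6 nM biotinylated Cbl-b preincubated 30-60 min with compound, then 60 min at RT with 1-2.5 nM Src-Zap70 and 0.5 mM ATP in HEPES pH 7.0 buffer, 1% DMSO. Stopped with 5 mM EDTA plus 100 nM UBE2D2-Ub-FL-BODIPY and 1 nM streptavidin-Tb, 60 min; 520 nm signal; IC50 from 4-parameter fit.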

Sequence of Recombinant human Cbl-b (aa 36-427) (Q13191 36-427): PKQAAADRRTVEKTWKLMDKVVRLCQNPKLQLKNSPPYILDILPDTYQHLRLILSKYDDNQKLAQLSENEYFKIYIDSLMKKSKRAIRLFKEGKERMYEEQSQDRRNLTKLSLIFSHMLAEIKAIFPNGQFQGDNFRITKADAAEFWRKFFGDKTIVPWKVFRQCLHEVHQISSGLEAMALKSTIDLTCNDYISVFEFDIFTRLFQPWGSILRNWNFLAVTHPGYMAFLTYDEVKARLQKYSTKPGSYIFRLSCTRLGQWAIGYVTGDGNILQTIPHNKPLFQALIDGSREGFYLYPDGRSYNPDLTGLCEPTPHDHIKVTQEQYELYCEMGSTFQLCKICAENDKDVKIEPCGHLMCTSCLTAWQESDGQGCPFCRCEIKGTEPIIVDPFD

In the case of `Cn1cnnc1-c1cc(C#N)ccc1-c1cc(C2CC2)nc(N2Cc3c(F)cc(CNCC4CCC4)cc3C2=O)c1` [AKS-1, 4-[2-(6-{1[(Cyclobutylmethyl)amino]methyl}-4-fluoro-1-oxo-3H-isoindol-2-yl)-6-cyclopropylpyridin-4-yl]-3-(4-methyl-1,2,4-triazol-3-yl)benzonitrile], the IC50 in experiment [1] and in experiment [2] was at most 200 nM throughout.
Turning to `CN(Cc1cc(F)c2c(c1)C(=O)N(c1cc(-c3ccc(C#N)cc3-c3nncn3C)cc(C3CC3)n1)C2)CC1CCC1` [AKT-1, 4-[2-(6-{[(Cyclobutylmethyl)(methyl)amino]methyl}-4-fluoro-1-oxo-3H-isoindol-2-yl)-6-cyclopropylpyridin-4-yl]-3-(4-methyl-1,2,4-triazol-3-yl)benzonitrile], the IC50 in experiment [1] and in experiment [2] was at most 200 nM each time.
Take `CCC1(NCc2cc3c(c(C(F)(F)F)c2)CN(c2cc(-c4ccc(C#N)cc4-c4nncn4C)cc(C4CC4)n2)C3=O)CC1` [AKU-2, 4-[2-Cyclopropyl-6-(6-{1[(1-ethylcyclopropyl)amino]methyl}-1-oxo-4-(trifluoromethyl)-3H-isoindol-2-yl)pyridin-4-yl]-3-(4-methyl-1,2,4-triazol-3-yl)benzonitrile]: the half-inhibitory concentration (IC50) in experiment [1] and in experiment [2] was at most 200 nM each time.
As to `CO[C@H](C)CNCc1cc(F)c2c(c1)C(=O)N(c1cc(-c3ccc(C#N)cc3-c3nncn3C)cc(C3CC3)n1)C2` [AKV-1, 4-{2-Cyclopropyl-6-[4-fluoro-6-({[(2R)-2-methoxypropyl]amino}methyl)-1-oxo-3H-isoindol-2-yl]pyridin-4-yl}-3-(4-methyl-1,2,4-triazol-3-yl)benzonitrile], the 50% inhibitory concentration (IC50) in experiment [1] and in experiment [2] was at most 200 nM each time.
With `CO[C@@H](C)CNCc1cc(F)c2c(c1)C(=O)N(c1cc(-c3ccc(C#N)cc3-c3nncn3C)cc(C3CC3)n1)C2` [AKW-1, 4-{2-Cyclopropyl-6-[4-fluoro-6-({[(2S)-2-methoxypropyl]amino}methyl)-1-oxo-3H-isoindol-2-yl]pyridin-4-yl}-3-(4-methyl-1,2,4-triazol-3-yl)benzonitrile], the half-maximal inhibitory concentration (IC50) in experiment [1] and in experiment [2] was at most 200 nM in each case.
Consider `CCOc1cc(-c2ccc(C#N)cc2-c2nncn2C)cc(N2Cc3ccc(CO)cc3C2=O)n1` [AKX-1, 4-{2-Ethoxy-6-[6-(hydroxymethyl)-1-oxo-3H-isoindol-2-yl]pyridin-4-yl}-3-(4-methyl-1,2,4-triazol-3-yl)benzonitrile], for which the figures for the 50% inhibitory concentration (IC50) in experiment [1] and in experiment [2] were 200 to 1000 nM and at most 200 nM, respectively.
For `C[C@H]1CCCN(Cc2cc(F)c3c(c2)C(=O)N(c2cc(-c4ccc(C#N)cc4-c4nncn4C)cc(C4CC4)n2)C3)C1` [AKY-1, 4-[2-Cyclopropyl-6-(4-fluoro-6-{[(3S)-3-methylpiperidin-1-yl]methyl}-1-oxo-3H-isoindol-2-yl)pyridin-4-yl]-3-(4-methyl-1,2,4-triazol-3-yl)benzonitrile], in that order: at most 200 nM and at most 200 nM.
For `Cn1cnnc1-c1cc(C#N)ccc1-c1cc(C2CC2)nc(N2Cc3c(F)cc(CNCC4(F)CC4)cc3C2=O)c1` [AKZ-2, 4-{2-Cyclopropyl-6-[4-fluoro-6-({[(1-fluorocyclopropyl)methyl]amino}methyl)-1-oxo-3H-isoindol-2-yl]pyridin-4-yl}-3-(4-methyl-1,2,4-triazol-3-yl)benzonitrile], in that order: at most 200 nM and at most 200 nM.
With `Cn1cnnc1-c1cc(C#N)ccc1-c1cc(C2CC2)nc(N2Cc3c(Br)cc(CO)cc3C2=O)c1` [ALA-5, 4-{2-[4-Bromo-6-(hydroxymethyl)-1-oxo-3H-isoindol-2-yl]-6-cyclopropylpyridin-4-yl}-3-(4-methyl-1,2,4-triazol-3-yl)benzonitrile], the IC50 in experiment [1] and in experiment [2] was at most 200 nM throughout.
On to `COCCNCc1cc(Br)c2c(c1)C(=O)N(c1cc(-c3ccc(C#N)cc3-c3nncn3C)cc(C3CC3)n1)C2` [ALB-2, 4-[2-(4-Bromo-6-{[(2-methoxyethyl)amino]methyl}-1-oxo-3H-isoindol-2-yl)-6-cyclopropylpyridin-4-yl]-3-(4-methyl-1,2,4-triazol-3-yl)benzonitrile], for which the half-maximal inhibitory concentration (IC50) in experiment [1] and in experiment [2] was at most 200 nM throughout.
As for `CO[C@H](C)[C@@H](C)NCc1cc(F)c2c(c1)C(=O)N(c1cc(-c3ccc(C#N)cc3-c3nncn3C)cc(C3CC3)n1)C2` [ALC-2, 4-{2-Cyclopropyl-6-[4-fluoro-6-({[(2R,3R)-3-methoxybutan-2-yl]amino}methyl)-1-oxo-3H-isoindol-2-yl]pyridin-4-yl}-3-(4-methyl-1,2,4-triazol-3-yl)benzonitrile], the IC50 in experiment [1] and in experiment [2] was at most 200 nM in each case.
With `Cn1cnnc1-c1cc(C#N)ccc1-c1cc(C2CC2)nc(N2Cc3ccc(CNCC(C)(C)F)cc3C2=O)c1` [ALD-2, 4-[2-Cyclopropyl-6-(6-{[(2-fluoro-2-methylpropyl)amino]methyl}-1-oxo-3H-isoindol-2-yl)pyridin-4-yl]-3-(4-methyl-1,2,4-triazol-3-yl)benzonitrile], the IC50 in experiment [1] and in experiment [2] was at most 200 nM throughout.
For the compound `Cn1cnnc1-c1cc(C#N)ccc1-c1cc(C2CC2)nc(N2Cc3cnc(CO)cc3C2=O)c1` [ALE-7, 4-{2-Cyclopropyl-6-[6-(hydroxymethyl)-1-oxo-3H-pyrrolo[3,4-c]pyridin-2-yl]pyridin-4-yl}-3-(4-methyl-1,2,4-triazol-3-yl)benzonitrile], the IC50 was at most 200 nM in experiment [1] and 200 to 1000 nM in experiment [2].
The matching figures for `Cn1cnnc1-c1cc(C#N)ccc1-c1cc(C2CC2)nc(N2Cc3cnc(CNCC4CCC4)cc3C2=O)c1` [ALF-2, 4-[2-(6-{[(Cyclobutylmethyl)amino]methyl}-1-oxo-3H-pyrrolo[3,4-c]pyridin-2-yl)-6-cyclopropylpyridin-4-yl]-3-(4-methyl-1,2,4-triazol-3-yl)benzonitrile]: at most 200 nM and at most 200 nM.
Consider `COC[C@@H](C)NCc1cc(F)c2c(c1)C(=O)N(c1cc(-c3ccc(C#N)cc3-c3nncn3C)cc(C3CC3)c1)C2` [ALG-3, 3′-cyclopropyl-5′-[4-fluoro-6-({[(2R)-1-methoxypropan-2-yl]amino}methyl)-1-oxo-3H-isoindol-2-yl]-2-(4-methyl-1,2,4-triazol-3-yl)-[1,1′-biphenyl]-4-carbonitrile], for which the 50% inhibitory concentration (IC50) in experiment [1] and in experiment [2] was at most 200 nM in each case.
`COC[C@H](C)NCc1cc(F)c2c(c1)C(=O)N(c1cc(-c3ccc(C#N)cc3-c3nncn3C)cc(C3CC3)c1)C2` [ALH-1, 3′-Cyclopropyl-5′-[4-fluoro-6-({[(2S)-1-methoxypropan-2-yl]amino}methyl)-1-oxo-3H-isoindol-2-yl]-2-(4-methyl-1,2,4-triazol-3-yl)-[1,1′-biphenyl]-4-carbonitrile]: the concentration for half-maximal inhibition (IC50) in experiment [1] and in experiment [2] was at most 200 nM each time.
`Cn1cnnc1-c1cc(C#N)ccc1-c1cc(C2CC2)nc(N2Cc3c(F)cc(CN[C@@H]4COC[C@@H]4O)cc3C2=O)c1` [ALI-2, 4-{2-Cyclopropyl-6-[4-fluoro-6-({[(3R,4R)-4-hydroxyoxolan-3-yl]amino}methyl)-1-oxo-3H-isoindol-2-yl]pyridin-4-yl}-3-(4-methyl-1,2,4-triazol-3-yl)benzonitrile]: the IC50 in experiment [1] and in experiment [2] was at most 200 nM throughout.
Regarding `Cn1cnnc1-c1cc(C#N)ccc1-c1cc(C2CC2)nc(N2Cc3ccc(CN4CC(F)C4)cc3C2=O)c1` [ALJ-1, 4-(2-Cyclopropyl-6-{6-[(3-fluoroazetidin-1-yl)methyl]-1-oxo-3H-isoindol-2-yl}pyridin-4-yl)-3-(4-methyl-1,2,4-triazol-3-yl)benzonitrile], the IC50 in experiment [1] and in experiment [2] was at most 200 nM throughout.
On to `Cn1cnnc1-c1cc(C#N)ccc1-c1cc(C2CC2)nc(N2Cc3ccc(C(C)(C)N)cc3C2=O)c1` [ALK-9, 4-{2-[6-(2-Aminopropan-2-yl)-1-oxo-3H-isoindol-2-yl]-6-cyclopropylpyridin-4-yl}-3-(4-methyl-1,2,4-triazol-3-yl)benzonitrile], for which the concentration for half-maximal inhibition (IC50) in experiment [1] and in experiment [2] was at most 200 nM throughout.
With `Cn1cnnc1-c1cc(C#N)ccc1-c1cc(C2CC2)nc(N2Cc3ccc(C(C)(C)NCC4CC4)cc3C2=O)c1` [ALL-2, 4-[2-Cyclopropyl-6-(6-{2-[(cyclopropylmethyl)amino]propan-2-yl}-1-oxo-3H-isoindol-2-yl)pyridin-4-yl]-3-(4-methyl-1,2,4-triazol-3-yl)benzonitrile], the IC50 in experiment [1] and in experiment [2] was at most 200 nM each time.
On to `Cn1cnnc1-c1cc(C#N)ccc1-c1cc(N2Cc3c(F)cc(CO)cc3C2=O)nc(C(F)(F)F)c1` [ALM-3, 4-{2-[4-Fluoro-6-(hydroxymethyl)-1-oxo-3H-isoindol-2-yl]-6-(trifluoromethyl)pyridin-4-yl}-3-(4-methyl-1,2,4-triazol-3-yl)benzonitrile], for which the half-inhibitory concentration (IC50) in experiment [1] is 200 to 1000 nM; in experiment [2] it was at most 200 nM.
In the case of `COCCNCc1cc(F)c2c(c1)C(=O)N(c1cc(-c3ccc(C#N)cc3-c3nncn3C)cc(C(F)(F)F)n1)C2` [ALN-2, 4-[2-(4-Fluoro-6-{[(2-methoxyethyl)amino]methyl}-1-oxo-3H-isoindol-2-yl)-6-(trifluoromethyl)pyridin-4-yl]-3-(4-methyl-1,2,4-triazol-3-yl)benzonitrile], the IC50 in experiment [1] and in experiment [2] was at most 200 nM in each case.
As for `Cn1cnnc1-c1cc(C#N)ccc1-c1cc(C2CC2)nc(N2Cc3c(F)cc(CNCC4(C)CCC4)cc3C2=O)c1` [ALO-2, 4-{2-Cyclopropyl-6-[4-fluoro-6-({[(1-methylcyclobutyl)methyl]amino}methyl)-1-oxo-3H-isoindol-2-yl]pyridin-4-yl}-3-(4-methyl-1,2,4-triazol-3-yl)benzonitrile], the concentration for half-maximal inhibition (IC50) in experiment [1] and in experiment [2] was at most 200 nM each time.
